# Data: ChEMBL document CHEMBL5715954, “Silencing c-Myc translation as a therapeutic strategy through targeting PI3Kδ and CK1ε in hematological malignancies” (Blood, 2017)
# Tests used:
# Design in all cases: scale not given: the % may be the effect or the level left
# [1] = target: Cyclin-dependent kinase 2/cyclin E1 (Homo sapiens) (UniProt P24864+P24941); test: Inhibition of human CDK2/cyclin E assessed as enzyme activity at 1 uM using RB Protein as substrate preincubated for 20 mins followed by [gamma-33P]-ATP addition and measured after 120 mins by radiometric Hot-SpotSM Kinase assay relative to control; format: protein-complex assay
# [2] = target: T1, Serine/threonine-protein kinase ULK1 (Homo sapiens) (UniProt O75385); test: Inhibition of human ULK1 assessed as enzyme activity at 1 uM using myelin basic protein as substrate preincubated for 20 mins followed by [gamma-33P]-ATP addition and measured after 120 mins by radiometric Hot-SpotSM Kinase assay relative to control
# T1 sequence (whole entry): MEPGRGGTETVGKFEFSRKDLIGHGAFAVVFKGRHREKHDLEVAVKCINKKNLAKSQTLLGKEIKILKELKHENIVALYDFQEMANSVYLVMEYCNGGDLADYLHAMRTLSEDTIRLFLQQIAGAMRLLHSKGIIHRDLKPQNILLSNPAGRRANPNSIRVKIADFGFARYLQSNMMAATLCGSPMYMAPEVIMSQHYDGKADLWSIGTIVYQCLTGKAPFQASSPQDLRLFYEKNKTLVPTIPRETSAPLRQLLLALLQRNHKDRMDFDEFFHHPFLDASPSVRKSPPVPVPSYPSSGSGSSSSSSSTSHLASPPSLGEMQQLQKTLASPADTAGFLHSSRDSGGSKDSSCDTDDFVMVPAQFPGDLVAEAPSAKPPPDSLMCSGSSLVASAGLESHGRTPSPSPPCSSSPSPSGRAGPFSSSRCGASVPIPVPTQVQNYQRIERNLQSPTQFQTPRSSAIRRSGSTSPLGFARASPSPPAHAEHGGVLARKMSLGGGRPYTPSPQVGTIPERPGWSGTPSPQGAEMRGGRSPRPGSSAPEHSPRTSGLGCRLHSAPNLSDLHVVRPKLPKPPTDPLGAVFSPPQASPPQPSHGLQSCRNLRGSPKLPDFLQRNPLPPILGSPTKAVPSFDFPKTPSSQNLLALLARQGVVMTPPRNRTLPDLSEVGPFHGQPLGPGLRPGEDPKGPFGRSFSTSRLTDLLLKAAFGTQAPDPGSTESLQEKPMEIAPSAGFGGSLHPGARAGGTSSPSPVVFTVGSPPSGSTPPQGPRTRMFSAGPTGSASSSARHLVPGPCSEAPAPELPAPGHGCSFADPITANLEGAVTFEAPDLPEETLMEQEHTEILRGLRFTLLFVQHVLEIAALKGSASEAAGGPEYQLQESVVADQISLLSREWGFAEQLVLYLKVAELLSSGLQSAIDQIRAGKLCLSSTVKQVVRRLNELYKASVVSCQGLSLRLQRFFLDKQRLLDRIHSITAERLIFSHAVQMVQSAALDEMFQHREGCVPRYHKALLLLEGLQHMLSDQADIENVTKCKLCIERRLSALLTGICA
# [3] = target: Mitogen-activated protein kinase 10 (Homo sapiens) (UniProt P53779); test: Inhibition of human JNK3 assessed as enzyme activity at 1 uM using ATF2 as substrate preincubated for 20 mins followed by [gamma-33P]-ATP addition and measured after 120 mins by radiometric Hot-SpotSM Kinase assay relative to control
# Mitogen-activated protein kinase 10 (Homo sapiens), sequence (P53779 whole entry): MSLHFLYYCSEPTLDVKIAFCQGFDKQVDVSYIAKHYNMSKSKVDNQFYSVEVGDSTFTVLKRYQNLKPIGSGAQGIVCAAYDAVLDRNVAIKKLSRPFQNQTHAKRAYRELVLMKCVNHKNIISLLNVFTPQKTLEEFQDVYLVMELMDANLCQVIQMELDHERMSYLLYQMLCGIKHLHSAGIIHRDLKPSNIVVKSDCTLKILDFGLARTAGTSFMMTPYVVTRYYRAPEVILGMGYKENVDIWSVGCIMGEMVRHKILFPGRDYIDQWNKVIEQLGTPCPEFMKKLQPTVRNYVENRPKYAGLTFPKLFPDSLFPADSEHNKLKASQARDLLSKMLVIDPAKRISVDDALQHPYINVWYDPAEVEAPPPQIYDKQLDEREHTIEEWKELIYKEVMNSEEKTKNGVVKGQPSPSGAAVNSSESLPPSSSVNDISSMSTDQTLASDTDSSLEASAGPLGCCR
# [4] = target: T2, Serine/threonine-protein kinase Nek8 (Homo sapiens) (UniProt Q86SG6); test: Inhibition of human NEK8 assessed as enzyme activity at 1 uM using myelin basic protein as substrate preincubated for 20 mins followed by [gamma-33P]-ATP addition and measured after 120 mins by radiometric Hot-SpotSM Kinase assay relative to control
# T2 sequence (whole entry): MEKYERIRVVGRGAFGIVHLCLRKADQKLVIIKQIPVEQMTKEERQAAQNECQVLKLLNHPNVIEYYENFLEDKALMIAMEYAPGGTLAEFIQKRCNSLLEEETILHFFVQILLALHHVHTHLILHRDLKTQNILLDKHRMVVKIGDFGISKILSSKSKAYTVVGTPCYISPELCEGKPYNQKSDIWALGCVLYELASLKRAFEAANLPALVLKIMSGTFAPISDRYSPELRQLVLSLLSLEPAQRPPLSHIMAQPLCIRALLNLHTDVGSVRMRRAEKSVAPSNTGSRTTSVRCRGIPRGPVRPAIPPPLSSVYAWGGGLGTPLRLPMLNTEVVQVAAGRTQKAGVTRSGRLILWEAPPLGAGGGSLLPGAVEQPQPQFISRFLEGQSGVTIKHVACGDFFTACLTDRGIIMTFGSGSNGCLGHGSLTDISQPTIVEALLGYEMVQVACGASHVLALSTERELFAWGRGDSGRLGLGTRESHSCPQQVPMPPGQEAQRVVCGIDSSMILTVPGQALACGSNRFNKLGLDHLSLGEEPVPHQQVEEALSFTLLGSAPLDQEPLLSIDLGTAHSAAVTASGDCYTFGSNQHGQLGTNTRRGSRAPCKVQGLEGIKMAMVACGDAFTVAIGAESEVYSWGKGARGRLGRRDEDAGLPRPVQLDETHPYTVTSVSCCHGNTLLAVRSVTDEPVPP
# [5] = target: CDK1/Cyclin E (Homo sapiens) (UniProt P06493+P24864); test: Inhibition of human CDK1/cyclin E assessed as enzyme activity at 1 uM using RB Protein as substrate preincubated for 20 mins followed by [gamma-33P]-ATP addition and measured after 120 mins by radiometric Hot-SpotSM Kinase assay relative to control; format: protein-complex assay
# CDK1/Cyclin E (Homo sapiens), sequence (P06493 whole entry, looked up): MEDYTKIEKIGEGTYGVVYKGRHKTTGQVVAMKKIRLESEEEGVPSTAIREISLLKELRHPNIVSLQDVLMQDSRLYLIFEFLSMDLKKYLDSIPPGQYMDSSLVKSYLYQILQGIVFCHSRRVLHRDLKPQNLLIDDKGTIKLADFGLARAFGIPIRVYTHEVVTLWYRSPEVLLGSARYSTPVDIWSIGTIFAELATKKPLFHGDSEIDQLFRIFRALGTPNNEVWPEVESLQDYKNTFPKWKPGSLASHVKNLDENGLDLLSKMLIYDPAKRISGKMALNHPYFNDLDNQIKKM
# CDK1/Cyclin E (Homo sapiens), sequence (P24864 whole entry, looked up): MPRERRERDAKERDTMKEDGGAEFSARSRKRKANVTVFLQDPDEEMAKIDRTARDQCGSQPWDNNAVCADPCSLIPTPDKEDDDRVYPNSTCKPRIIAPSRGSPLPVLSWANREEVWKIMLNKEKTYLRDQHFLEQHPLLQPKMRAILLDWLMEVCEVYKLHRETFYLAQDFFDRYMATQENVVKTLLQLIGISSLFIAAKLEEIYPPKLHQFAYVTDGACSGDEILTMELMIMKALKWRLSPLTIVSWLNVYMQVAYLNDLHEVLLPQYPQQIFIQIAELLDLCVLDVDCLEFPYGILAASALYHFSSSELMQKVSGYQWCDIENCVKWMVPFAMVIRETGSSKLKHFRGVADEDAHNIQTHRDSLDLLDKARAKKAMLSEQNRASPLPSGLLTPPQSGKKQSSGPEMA
SMILES,Activity [1] [%],Activity [2] [%],Activity [3] [%],Activity [4] [%],Activity [5] [%]
CC[C@H](Nc1ncnc2[nH]cnc12)c1nc2cccc(F)c2c(=O)n1-c1ccccc1,96.2,96.9,96,94.3,88.5
C[C@H](Nc1ncnc2nc[nH]c12)c1cc2cccc(Cl)c2c(=O)n1-c1ccccc1,95.6,111,96.6,95,91.5
CC(C)Oc1ccc(-c2nn([C@@H](C)c3oc4ccc(F)cc4c(=O)c3-c3cccc(F)c3)c3ncnc(N)c23)cc1F [UMBRALISIB],99,100,95.6,91,86
